Assay results taken from patent US5536737A, “Compound having prolyl endopeptidase inhibitory activity and pharmaceutical use thereof” (Japan Tobacco Inc., priority 1992, dated 1996).
Where two headings read alike, the source gives them in different places.

Experiments:
Format in all cases: biochemical
prolyl endopeptidase = target: T1, prolyl endopeptidase (Rattus norvegicus, UniProt O70196); assay: Prolyl endopeptidase-inhibitory activity; settings: for inhibition at 0.1 µM: read-out: inhibition of prolyl endopeptidase
T1 construct: prolyl endopeptidase extracted from rat brain; from tissue; host or cells: rat brain
T1 sequence (O70196 1-710): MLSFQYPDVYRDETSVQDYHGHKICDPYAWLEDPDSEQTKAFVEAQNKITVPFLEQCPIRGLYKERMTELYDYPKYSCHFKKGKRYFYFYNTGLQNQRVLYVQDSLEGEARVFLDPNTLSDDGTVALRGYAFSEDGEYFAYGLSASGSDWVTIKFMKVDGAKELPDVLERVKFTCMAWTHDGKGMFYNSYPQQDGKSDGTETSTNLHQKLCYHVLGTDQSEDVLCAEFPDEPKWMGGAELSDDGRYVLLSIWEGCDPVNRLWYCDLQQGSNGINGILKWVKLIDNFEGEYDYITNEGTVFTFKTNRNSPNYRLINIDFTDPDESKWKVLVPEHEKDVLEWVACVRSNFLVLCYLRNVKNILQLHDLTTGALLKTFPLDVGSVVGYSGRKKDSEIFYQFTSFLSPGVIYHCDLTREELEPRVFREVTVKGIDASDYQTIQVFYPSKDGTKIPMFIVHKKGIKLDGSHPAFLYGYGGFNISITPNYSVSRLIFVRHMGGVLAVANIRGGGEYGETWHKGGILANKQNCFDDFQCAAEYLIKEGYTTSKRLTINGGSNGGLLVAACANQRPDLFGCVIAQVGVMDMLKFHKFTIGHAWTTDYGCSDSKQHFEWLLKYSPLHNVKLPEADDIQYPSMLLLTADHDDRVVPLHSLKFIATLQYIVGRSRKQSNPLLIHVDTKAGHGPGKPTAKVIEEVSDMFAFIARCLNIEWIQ
Experimental: Prolyl endopeptidase-inhibitory activity
A mixture of a 0.1M potassium-sodium phosphate buffer (pH 7.0, 2675 μl ), a solution of the compound of the present invention in a 0.1M potassium-sodium phosphate buffer (pH 7.0, 100 μl ) and a solution of prolyl endopeptidase extracted from rat brain in a 25 mM sodium phosphate buffer (100 μl ) [123 unit/1, pH 6.8, containing 1 mM dithiothreitol and 0.5 mM EDTA, prepared by the method described in J. Neurochem., 35, 527 (1980)] was preincubated at 30° C. for 30 minutes. Thereto was added a 0.2 mM solution of 7-(N-succinyl-glycyl-prolyl)-4methylcoumarinamide (Peptide Institute, INC.) in a 0.1M potassium-sodium phosphate buffer (pH 7.0, 125 μl), and the mixture was incubated at 30° C. for 1 hour. The reaction mixture was immersed in ice (0° C.) to terminate the reaction, and the fluorescence (a1) was determined ten minutes later (excitation at 370 nm and emission at 440 nm). Concurrently, an experiment wherein, in the above system, the prolyl endopeptidase solution was substituted for a 25 mM sodium phosphate buffer (pH 6.8, containing 1 mM dithiothreitol and 0.5 mM EDTA) and an experiment wherein the solution of the compound of the present invention was substituted for a 0.1M potassium-sodium phosphate buffer (pH 7.0) were conducted. Each fluorescence (a2 and a3) was determined [See Tanpakushitsu Kakusan Koso, 29, 127 (1984)]. The prolyl endopeptidase inhibition was calculated by the following formula, and IC50, a concentration necessary for 50% inhibition, was estimated by using a semilogarithmic graph paper. [formula]

trypsin = target: T2, trypsin (Bos taurus, UniProt P00760); assay: Trypsin-inhibitory activity; settings: concentration 0.1 μM; bovine pancreas, pH 8.0
T2 construct: purchased Sigma; host or cells: bovine pancreas
T2 sequence (P00760 24-246): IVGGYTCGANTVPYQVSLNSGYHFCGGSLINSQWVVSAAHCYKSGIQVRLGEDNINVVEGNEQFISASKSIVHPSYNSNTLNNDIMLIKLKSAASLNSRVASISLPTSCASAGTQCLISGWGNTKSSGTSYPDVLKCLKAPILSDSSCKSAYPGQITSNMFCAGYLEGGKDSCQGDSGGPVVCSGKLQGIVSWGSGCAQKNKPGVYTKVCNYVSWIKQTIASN
Experimental: (§1) Inhibitory activity against various proteases
(§2) The compound of the present invention having predetermined concentrations was tested for the specificity of the inhibitory activity against various proteases according to a known test method.
(§3) The methods for the determination of the inhibitory activity against various proteases other than prolyl endopeptidase and the method for calculating the inhibition are as follows.
Determination of trypsin-inhibitory activity
In the present invention, a 50 mM Tris-HCI buffer (pH 8.0) was used as a buffer for measurement.
To a mixture of the above-mentioned buffer (850 μl ), a solution of the compound of the present invention in the same buffer (50 μl ) and a 0.02 μM solution of trypsin (derived from bovine pancreas, Sigma) in the same buffer (50 μl ) was added a 200 μM solution of 7-(prolyl-phenylaranyl-arginyl)-4methylcoumarinamide (Peptide Institute, Inc.) in the same buffer (50 μl), and the mixture was incubated at 30° C. for 1 hour. The reaction mixture was immersed in ice (0° C.) to terminate the reaction, and the fluorescence (b1) was determined 1 hour later (excitation at 370 nm and emission at 440 nm). Concurrently, an experiment wherein, in the system above, the trypsin solution was substituted for a buffer and an experiment wherein the solution of the compound of the present invention was substituted for said buffer were conducted. Each fluorescence (b2 and b3) was determined.
(§4) Using the fluorescence x1, x2 and x3 wherein x is b, c, d, e or f, measured in the above-mentioned manner, the inhibition against various proteases was calculated by the following formula: [formula]

chymotrypsin = target: T3, chymotrypsin (Bos taurus, UniProt P00766); assay: Chymotrypsin-inhibitory activity; settings: concentration 0.1 μM; bovine pancreas, pH 8.0
T3 construct: purchased Sigma; host or cells: bovine pancreas
Experimental: as §1, §2, §3
Determination of chymotrypsin-inhibitory activity
In completely the same manner as above, respective fluorescence (c1, c2 and c3) was determined using a 50 mM Tris-HCl buffer (pH 8.0) as a buffer for determination, a 0.2 μM solution of chymotrypsin (derived from bovine pancreas, Sigma) in the same buffer as an enzyme solution, and a 200 μM solution of 7-(N-succinyl-leucyl-leucyl-varyl-tyrosyl)-4-methylcoumarinamide (Peptide Institute, Inc.) in the same buffer as a substrate solution.
as §4

leucine aminopeptidase = assay: Leucine aminopeptidase-inhibitory activity; settings: concentration 0.1 μM; swine kidney, pH 8.0
Experimental: as §1, §2, §3
Determination of leucine aminopeptidase-inhibitory activity
In completely the same manner as above, respective fluorescence (d1, d2 and d3) was determined using a 50 mM Tris-HCl buffer (pH 8.0) as a buffer for determination, a 0.2 μM solution of leucine aminopeptidase (derived from swine kidney, Sigma) in the same buffer as an enzyme solution and a 200 μM solution of 7-leucyl-4-methyl-coumarinamide (Peptide Institute, Inc.) in the same buffer as a substrate solution.
as §4

elastase = target: T4, elastase (Sus scrofa, UniProt P00772); assay: Elastase-inhibitory activity; settings: concentration 0.1 μM; swine pancreas, pH 8.5
T4 construct: purchased Sigma; host or cells: swine pancreas
T4 sequence (P00772 27-266): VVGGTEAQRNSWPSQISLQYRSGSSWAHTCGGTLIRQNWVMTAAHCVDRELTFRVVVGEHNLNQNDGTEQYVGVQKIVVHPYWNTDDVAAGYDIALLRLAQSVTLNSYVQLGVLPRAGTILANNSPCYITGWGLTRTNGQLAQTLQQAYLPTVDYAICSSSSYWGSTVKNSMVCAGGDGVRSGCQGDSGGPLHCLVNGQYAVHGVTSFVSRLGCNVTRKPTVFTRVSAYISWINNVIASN
Experimental: as §1, §2, §3
Determination of elastase-inhibitory activity
In completely the same manner as above, respective fluorescence (e1, e2 and e3) was determined using a 1 mM Tris-HCl buffer (pH 8.5) as a buffer for determination, a 0.2 μM solution of elastase (derived from swine pancreas, Sigma) in the same buffer as an enzyme solution and a 200 μM solution of 7-(N-succinyl-aranyl-prolyl-aranyl)-4-methylcoumarinamide (Peptide Institute, Inc.) in the same buffer as a substrate solution.
as §4

cathepsin B = target: T5, cathepsin B (Bos taurus, UniProt P07688); assay: Cathepsin B-inhibitory activity; settings: concentration 0.1 μM; bovine spleen, pH 6.0
T5 construct: purchased Sigma; host or cells: bovine spleen
Experimental: as §1, §2, §3
Determination of cathepsin B-inhibitory activity
In completely the same manner as above, respective fluorescence (f1, f2 and f3) was determined using a 100 mM sodium phosphate buffer (pH 6.0; containing 1.33 mM EDTA Na2) as a buffer for determination, a 0.02 μM solution of cathepsin B (derived from bovine spleen, Sigma) in the same buffer as an enzyme solution and a 200 μM solution of 7-(N-benzyloxy-carbonyl-phenylaranyl-arginyl)-4-methylcouma-rinamide (Peptid Institute, Inc.) in the same buffer as a substrate solution.
as §4

| inhibition at 0.1 µM (prolyl endopeptidase; concentration 0.1 μM) | Compound | IC50 (prolyl endopeptidase) | inhibition at 0.1 µM (prolyl endopeptidase) | inhibition at 0.1 µM (trypsin) | inhibition at 0.1 µM (chymotrypsin) | inhibition of leucine aminopeptidase (leucine aminopeptidase) | inhibition at 0.1 µM (elastase) | inhibition at 0.1 µM (cathepsin B) |
| --- | --- | --- | --- | --- | --- | --- | --- | --- |
|  | CCCCCCCC(=O)N1CCC[C@H]1C(=O)N1CCC[C@H]1C(=O)CO [Compound 11, (S)-2-[[(S)-2-(Hydroxyacetyl)-1-pyrrolidinyl]carbonyl]-1-octanoylpyrrolidine] | 0.4 nM |  |  |  |  |  |  |
|  | O=C(CO)[C@@H]1CCCN1C(=O)[C@@H]1CSCN1C(=O)OCc1ccccc1 [Compound 14, (R)-4-[[(S)-2-(Hydroxyacetyl)-1-pyrrolidinyl]carbonyl]-3(phenylmethyloxycarbonyl)thiazolidine] | 1 nM |  |  |  |  |  |  |
|  | COc1ccc(OCC(=O)N2CCC[C@H]2C(=O)N2CCC[C@H]2C(=O)CO)cc1 [Compound 9, (S)-2-[[(S)-2-(Hydroxyacetyl)-1-pyrrolidinyl]carbonyl]-1-[(4methoxyphenyl)oxyacetyl]pyrrolidine] | 2 nM |  |  |  |  |  |  |
|  | CC(=O)OCC(=O)[C@@H]1CCCN1C(=O)[C@@H]1CCCN1C(=O)NCc1ccccc1 [Compound 1, (S)-2-[[(S)-2-(Acetoxyacetyl)-1-pyrrolidinyl]carbonyl]-N-(phenylmethyl)-1-pyrrolidinecarboxamide] | 0.1 nM | 100% | 0% | 0% | 0% | 0% | 0% |
|  | CCCCCCCC(=O)N1CCC[C@H]1C(=O)N1CCC[C@H]1C(=O)COC(=O)c1ccccc1 [Compound 13, (S)-2-[[(S)-2-(Benzoyloxyacetyl)-1-pyrrolidinyl]carbonyl]-1-octanoylpyrrolidine] | 8 nM |  |  |  |  |  |  |
|  | O=C(CO)[C@@H]1CCCN1C(=O)[C@@H]1CCCN1C(=O)NCCc1ccccc1 [Compound 5, (S)-2-[[(S)-2-(Hydroxyacetyl)-1-pyrrolidinyl]carbonyl]-N-(2-phenylethyl)-1-pyrrolidinecarboxamide] | 0.3 nM | 100% | 0% | 0% | 0% | 0% | 0% |
|  | CC(C)(C)C(=O)OCC(=O)[C@@H]1CCCN1C(=O)[C@@H]1CCCN1C(=O)NCc1ccccc1 [Compound 4, (S)-N-(Phenylmethyl)-2-[[(S)-2-(pivaloyloxyacetyl)-1-pyrrolidinyl]carbonyl]-1-pyrrolidinecarboxamide] | 1 nM | 97% | 0% | 0% | 0% | 0% | 0% |
| 98% | O=C(CO)[C@@H]1CCCN1C(=O)[C@@H]1CCCN1C(=O)NCc1ccccc1 [Compound 2, (S)-2-[[(S)-2-(Hydroxyacetyl)-1-pyrrolidinyl]carbonyl]-N-(phenylmethyl)-1-pyrrolidinecarboxamide] |  |  | 0% | 0% | 0% | 0% | 0% |
|  | COc1ccc(OCC(=O)N2CCC[C@H]2C(=O)N2CCC[C@H]2C(=O)COC(=O)C(C)(C)C)cc1 [Compound 10, (S)-1-[(4-Methoxyphenyl)oxyacetyl]-2-[[(S)-2-(pivaloyloxyacetyl)1-pyrrolidinyl]carbonyl]pyrrolidine] | 10 nM |  |  |  |  |  |  |
|  | O=C(OCC(=O)[C@@H]1CCCN1C(=O)[C@@H]1CCCN1C(=O)NCc1ccccc1)c1ccccc1 [Compound 3] | 0.1 nM | 98% | 0% | 0% | 0% | 0% | 0% |
|  | Cc1ccc(CNC(=O)N2CCC[C@H]2C(=O)N2CCC[C@H]2C(=O)COC(=O)c2ccccc2)cc1 [Compound 8, (S)-2-[[(S)-2-(Benzoyloxyacetyl)-1-pyrrolidinyl]carbonyl]-N-[(4methylphenyl)methyl]-1-pyrrolidinecarboxamide] | 0.4 nM | 100% | 0% | 0% | 0% | 0% | 0% |
|  | CC(=O)OCC(=O)[C@@H]1CCCN1C(=O)[C@@H]1CCCN1C(=O)NCc1ccc(Cl)cc1 [Compound 15, (S)-2-[[(S)-2-(Acetoxyacetyl)-1-pyrrolidinyl]carbonyl]-N(4-chlorophenylmethyl)-1-pyrrolidinecarboxamide] | 2 nM |  |  |  |  |  |  |
|  | CCCCCCCC(=O)N1CCC[C@H]1C(=O)N1CCC[C@H]1C(=O)COC(C)=O [Compound 12, (S)-2-[[(S)-2-(Acetoxyacetyl)-1-pyrrolidinyl]carbonyl]-1-octanoylpyrrolidine] | 2 nM |  |  |  |  |  |  |
